Key:
[1] = system: Human C-peptide / insulin-expressing cells (H1-derived pancreatic progenitors); assay: High-content screen 2 and dose response: insulin-expressing cells by immunofluorescence (Cellomics); type: cell-based; details: for auto-fluorescence and toxicity in dose-curve measurements: at 6.75 M and 27 M
Procedure: hESC culture and differentiation. Protocol 2. Human ESCs were routinely cultured on hESC-certified matrigel (BD Biosciences) in mouse embryonic fibroblast conditioned hES media (MEF-CM). MEF-CM media was produced by conditioning hESC media for […] on a confluent layer of mouse embryonic fibroblasts and subsequently adding 20 ng/ml bFGF (Invitrogen). hES media was composed of DMEM/F12 (GIBCO) media supplemented with 20% KnockOut Serum Replacement (GIBCO), 2 mM Lglutamine (L-Glu, GIBCO), 1.1 mM 2-mercaptoethanol (GIBCO), 1 mM nonessential amino acids (GIBCO), 1× penicillin/strepto-mycin (P/S,GIBCO). Cells were passaged at the ratio of 1:6-1:20 every 4-7 days using TrypLE Express (Invitrogen).
To initiate differentiation the cells were dissociated using TrypLE Express to single cells and seeded at 150,000 cell/cm2 onto 1:30 dilution of growth factor reduced matrigel (BD Biosciences) in DMEM/F12 in MEF-CM media with 10 μM Y27632 (StemGent). Two days following seeding the differentiation was started. Cells were exposed to RPMI 1640 (Invitrogen) supplemented with 2% reagent grade BSA (Proliant) and 20 ng/ml human Wnt3a (R&D Systems)+100 ng/ml rhActivinA (R&D Systems)+8 ng/ml bFGF (Invitrogen) for the first day (stage 1.1). During day 2 and 3 the dayl media was used with the exception of Wnt3a (stage 1.2). During days 4-5 cells were treated with RPMI+2% BSA+50 ng/ml FGF7 (Peprotech) (stage 2). For days 6-9 cells were treated with DMEM-HG (Invitrogen)+0.1% Albumax BSA (Invitrogen)+1:200 ITS-X (Invitrogen)+50 ng/ml FGF7 (Peprotech)+2 μM RA (Sigma)+0.25 μM SANT-1 (Sigma)+20 ng/ml rhActivinA (R&D Systems)+100 ng/ml rhNoggin (R&D Systems) (stage 3). During days 10-12 cells were treated with DMEM-HG (Invitrogen)+0.1% Albumax BSA (Invitrogen)+1:200 ITS-X (Invitrogen)+100 ng/ml rhNoggin (R&D Systems)+0.25 μM SANT-1 (Sigma)+100 nM PDBu (EMD Biosciences) (stage 4). During days 13-15 cells were treated with DMEM-HG (Invitrogen)+0.1% Albumax BSA (Invitrogen)+1:200 ITS-X (Invitrogen)+100 ng/ml rhNoggin (R&D Systems)+1 μM Alk5 inhibitor (Axxora) (stage 5). PKC inhibitor Bisindolylmaleimide I (VWR) was added during stage 5.
High-content screen 2. The compound libraries used for this study: 400 compounds, including bioactive molecules, natural products, and 400 compounds that are known modulators of development or signaling pathways. For the chemical screen the day 8 cells were dispersed into single cells, using TrypLE, and replated at 150,000 cells/well of a 96 well plate in the presence of stage 3 media and 10 μM Y27632. Compounds were added to the wells on day 10 in stage 4 media, then again on days 12 and 14 in stage 5 media. Media was changed every other day suing the treatment. Cells were fixed using 4% paraformaldehyde (PFA, Sigma) on day 15 and stained using mouse antiglucagon and rabbit anti-c-peptide antibodies.
Screen 2: Immunostaining. Following 4% PFA fixation, cells were 3×5 min washed in PBS and blocked with 10% donkey serum (Jackson Immunoresearch) in PBS/0.3% Triton X. Primary antibodies were incubated overnight at 4 C. Secondary antibodies were incubated for 1 hr at room temperature. […]

[2] = system: INS, GCG and SST transcripts (H1-derived pancreatic progenitors); assay: qRT-PCR of endocrine hormone transcripts (INS, GCG, SST); type: cell-based, human; details: 3 day treatment
Text: FIGS. 3A-3D show PKC agonists block the formation of insulin-expressing cells. […] Wells were stained for insulin and cell number counted in representative portions of the well by the Cellomics high content screening system. Error bars represent s.d. Two-tailed T-test p<0.05. […] Endocrine induction is blocked by PKC agonist TPB and reversed by Bis1. […] P<0.001. The decrease in INS and GCG expression due to TPB treatment is reversed by BisI. […] P<0.001.
H1-derived pancreatic progenitors were treated for 3 days with DMSO or 3 μM BisI. qRT-PCR for INS, GCG and SST performed and shown as fold change over DMSO control.

[3] = system: HUES8 pancreatic progenitors; assay: Insulin cell number in HUES8 pancreatic progenitors in the presence of Noggin and Alk5 inhibitors; type: cell-based, human; details: HUES8, 6 days, in the presence of Noggin and Alk5 inhibitor, versus DMSO
Text: FIGS. 1A-1K show high-content screens to increase the number of NGN3-expressing and insulin-expressing cells. FIG. 1A is a schematic showing the stepwise differentiation from hESCs to pancreatic endocrine cells. DE, definitive endoderm; PP, pancreatic progenitor; EP, endocrine progenitor; EN, endocrine cells. Scheme of high-content screen beginning with a population of cells that have differentiated into pancreatic progenitors. FIGS. 1B and 1F are schematic diagrams showing the method of high-content screen, which begins with a population of cells that have differentiated into pancreatic progenitors. FIGS. 1C and 1G show the chemical structures of a PKCβ inhibotor and Bisindolylmaleimide I compound identified from the screen. FIGS. 1D and 1H show an efficacy curve of the hit compounds. […] The hit compounds effect on HUES 8-pancreatic progenitor population. After 14 d of differentiation, the HUES 8-pancreatic progenitor populations were treated with 10 M PKCβ inhibitor for four days and then stained with NGN 3 antibody (green). NGN3, neurogenin 3. Scale bar is 100 m. […] Percentage of insulin-positive cells with s.d. […] The percentage of NGN3^+ cells was analyzed with the Cellomics high content screening system (Thermo Scientific). […] Insulin cell number with was counted over the same area in different wells. […]

## CN(C)CCCn1cc(C2=C(c3c[nH]c4ccccc34)C(=O)NC2=O)c2ccccc21 [BisI, Bisindolylmaleimide I]
[1]; 1 M BisI, 6 days, DMSO-treated controls 0.9 0.1%
  insulin-expressing cells: up to 2.7 0.8%
[1]; Homo sapiens, H1, with Noggin and Alk5 inhibitor, FIG. 1H, read-out: EC50, total number of insulin-expressing cells
  EC50: 848 nM
[1]
  auto-fluorescence and toxicity in dose-curve measurements: Significant auto-fluorescence and toxicity
[1]; listed as Bisindolylmaleimide I
  auto-fluorescence and toxicity in dose-curve measurements: considerable auto-fluorescence and toxicity
[2]; 3 M BisI + 5 M TPB
  effect of TPB on INS and GCG expression in the presence of BisI: reversed
[3]
  increase of the numbers of insulin-expressing cells: up to 7.5 fold

## CCCC(=O)O[C@@H]1[C@@H](C)[C@@]2(O)[C@@H](C=C(CO)C[C@]3(O)C(=O)C(C)=C[C@@H]23)[C@@H]2C(C)(C)[C@]12OC(=O)CCC [PdBu, phorbol 12,13-dibutyrate]
[1]; three-day treatment of H1-derived pancreatic progenitors (FIG. 3A: 1 M, 6 days)
  decline in endocrine differentiation, number of insulin+ cells: 3.7 fold

## CC(C)[C@H]1C(=O)N[C@H](CO)Cc2cc(NC(=O)/C=C/C=C/c3ccc(C(F)(F)F)cc3)ccc2N1C [TPB, (2S,5S)-(E,E)-8-(5-(4-(trifluoromethyl)phenyl)-2,4-pentadienoylamino)benzolactam]
[2]; 5 M TPB
  expression of endocrine hormones insulin and glucagon: decrease
[2]; TPB combined with Alk5 inhibitor
  effect on endocrine induction by Alk5 inhibitor (INS and GCG transcripts): sufficient to block the effect of Alk5 inhibitors on endocrine induction

— patent US10941384B2, “Compositions and methods for promoting the generation of endocrine cells” (President and Fellows of Harvard College, priority 2013, dated 2021)
